The experiment has as its target T1, Rec. human COMT (Homo sapiens, UniProt P21964).
T1 sequence (P21964 1-271): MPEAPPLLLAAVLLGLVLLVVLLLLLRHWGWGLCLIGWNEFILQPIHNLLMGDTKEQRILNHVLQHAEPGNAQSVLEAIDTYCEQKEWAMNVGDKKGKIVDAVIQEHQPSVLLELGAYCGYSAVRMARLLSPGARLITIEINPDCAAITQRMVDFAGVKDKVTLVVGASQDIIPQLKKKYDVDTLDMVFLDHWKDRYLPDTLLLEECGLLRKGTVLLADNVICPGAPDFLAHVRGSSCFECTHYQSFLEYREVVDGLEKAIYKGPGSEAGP
Kind of experiment: COMT-Fluorescence Assay. Conditions: rec. human COMT 25 nM, 4-Nitrocatechol-Alexa488 200 nM, SAM 500 nM. Type of experiment: biochemical. The procedure:
This intramolecular interaction is disturbed if the 4-Nitrocatechol is methylated. […] This increase of fluorescence intensity can be followed in a kinetic measurement. The slope in the linear range of the kinetic is calculated. An inhibitor compound decreases the slope.
Signal [rfu/min]=(rfu(end-point)−rfu(startpoint))/incubation_time_#2

[1] abbreviates: COMT-fluorescence assay, read-out: IC50.

Each structure is given as a SMILES string. Where a name gives a salt, the structure may show the parent alone. Read-outs that look alike come from different tables or passages of the source.

The IC50 is the midpoint of a concentration-inhibition curve. As for `O=c1[nH]cnc2c(O)cc(-c3ccccc3CCCCN3CCCC3)cc12` [Example 248, 8-Hydroxy-6-(2-(4-(pyrrolidin-1-yl)butyl)phenyl)quinazolin-4(3H)-one], the half-maximal inhibitory concentration (IC50) under setting [1] worked out at 0.1 µM.

On to `CN(C)c1ccccc1-c1cc(O)c2nc[nH]c(=O)c2c1` [Example 209, 6-(2-(Dimethylamino)phenyl)-8-hydroxyquinazolin-4(3H)-one], for which the IC50 under setting [1] is 0.37 µM.

On to `O=c1[nH]cnc2c(O)cc(C3CCc4ccccc4C3)cc12` (racemic) [Example 8, (rac.) 8-Hydroxy-6-(1,2,3,4-tetrahydronaphthalen-2-yl)quinazolin-4(3H)-one], for which, under setting [1], the IC50 came to 0.1 µM.

For `Cc1c(-c2cc(O)c3nc[nH]c(=O)c3c2)c(C(F)(F)F)nn1C` [Example 95, 6-(1,5-Dimethyl-3-(trifluoromethyl)-1H-pyrazol-4-yl)-8-hydroxyquinazolin-4(3H)-one], the IC50 under setting [1] amounted to 0.97 µM.

Take `O=c1[nH]cnc2c(O)cc(-c3ccccc3C(F)(F)F)cc12` [Example 221, 8-Hydroxy-6-(2-(trifluoromethyl)phenyl)quinazolin-4(3H)-one]: under setting [1], the IC50 was determined as 0.03 µM.

For the compound `COCc1cc(CN2CCN(C(C)C)CC2)ccc1-c1cc(O)c2nc[nH]c(=O)c2c1` [Example 107, 8-Hydroxy-6-(4-((4-isopropylpiperazin-1-yl)methyl)-2-(methoxymethyl)phenyl)quinazolin-4(3H)-one tetrakis(2,2,2-trifluoroacetate)], the IC50 under setting [1] is 0.02 µM.

The compound `O=c1[nH]cnc2c(O)cc(-c3ccc4c(c3)CNCC4)cc12` [Example 174, 8-Hydroxy-6-(1,2,3,4-tetrahydroisoquinolin-7-yl)quinazolin-4(3H)-one] returned an IC50 (IC50, COMT-fluorescence assay) of 0.07 µM.

`O=c1[nH]cnc2c(O)cc(C#Cc3ccccc3)cc12` [Example 23, 8-Hydroxy-6-(phenylethynyl)quinazolin-4(3H)-one]: the IC50 under setting [1] is 0.01 µM.

Regarding `O=c1[nH]cnc2c(O)cc(/C=C/c3ccccc3)cc12` [Example 20, (E)-8-Hydroxy-6-styrylquinazolin-4(3H)-one], the IC50 under setting [1] came to 0.09 µM.

Turning to `O=c1[nH]cnc2c(O)ccc(-c3ccc(F)cc3)c12` [Example 151, 5-(4-Fluorophenyl)-8-hydroxyquinazolin-4(3H)-one], the IC50 under setting [1] came out at 0.16 µM.

As for `O=c1[nH]cnc2c(O)cc(-c3cncc4ccccc34)cc12` [Example 168, 8-Hydroxy-6-(isoquinolin-4-yl)quinazolin-4(3H)-one], the IC50 under setting [1] worked out at 0.03 µM.

Turning to `N#Cc1ccc(Cl)c(-c2cc(O)c3nc[nH]c(=O)c3c2)c1` [Example 27, 4-Chloro-3-(8-hydroxy-4-oxo-3,4-dihydroquinazolin-6-yl)benzonitrile], under setting [1], the IC50 is 0.04 µM.

Turning to `CS(=O)(=O)c1ccc(-c2c(-c3ccc(F)cc3)cc(O)c3nc[nH]c(=O)c23)cc1` [Example 57, 6-(4-Fluorophenyl)-8-hydroxy-5-(4-(methylsulfonyl)phenyl)quinazolin-4(3H)-one], the IC50 under setting [1] was found to be 0.01 µM.

With `Cc1cnccc1-c1cc(O)c2nc[nH]c(=O)c2c1` [Example 219, 8-Hydroxy-6-(3-methylpyridin-4-yl)quinazolin-4(3H)-one], the concentration for half-maximal inhibition (IC50) under setting [1] turned out to be 0.02 µM.

Regarding `COc1ncccc1-c1cc(O)c2nc[nH]c(=O)c2c1` [Example 162, 8-Hydroxy-6-(2-methoxypyridin-3-yl)quinazolin-4(3H)-one], the IC50 under setting [1] was 0.03 µM.

Take `O=c1[nH]cnc2c(O)cc(-c3ccc(F)cc3)c(C(F)(F)F)c12` [Example 43, 6-(4-Fluorophenyl)-8-hydroxy-5-(trifluoromethyl)quinazolin-4(3H)-one]: the IC50 under setting [1] worked out at 0.04 µM.

In the case of `Cn1nc(C(F)(F)F)cc1-c1cc(O)c2nc[nH]c(=O)c2c1` [Example 154, 8-Hydroxy-6-(2-methyl-5-trifluoromethyl-2H-pyrazol-3-yl)-3H-quinazolin-4-one], under setting [1], the IC50 came out at 0.02 µM.

Regarding `O=c1[nH]cnc2c(O)cc(CCCc3ccccc3)cc12` [Example 22], the IC50 under setting [1] came out at 0.2 µM.

Under “IC50, COMT-fluorescence assay”, `O=c1[nH]cnc2c(O)cc(-c3ccc(F)cc3F)cc12` [Example 133, 6-(2,4-Difluorophenyl)-8-hydroxyquinazolin-4(3H)-one] gave an IC50 of 0.02 µM.

As for `O=c1[nH]cnc2c(O)cc(Cc3ccccc3)cc12` [Example 9, 6-Benzyl-8-hydroxyquinazolin-4(3H)-one], under setting [1], the IC50 is 1.33 µM.

Turning to `O=c1[nH]cnc2c(O)cc(Br)c(F)c12` [Example 196, 6-Bromo-5-fluoro-8-hydroxyquinazolin-4(3H)-one], the IC50 under setting [1] is 0.12 µM.

As to `CCCS(=O)(=O)c1ccccc1-c1cc(O)c2nc[nH]c(=O)c2c1` [Example 249, 8-Hydroxy-6-(2-(propylsulfonyl)phenyl)quinazolin-4(3H)-one], the IC50 under setting [1] is 3.23 µM.

As for `O=c1[nH]cnc2c(O)cc(-c3cc(Cl)ccc3Cl)cc12` [Example 37, 6-(2,5-Dichlorophenyl)-8-hydroxyquinazolin-4(3H)-one], the IC50 (IC50, COMT-fluorescence assay) was 0.03 µM.

For the setting “IC50, COMT-fluorescence assay”, `CN1CCc2cc(-c3cc(O)c4nc[nH]c(=O)c4c3)ccc21` [Example 40, 8-Hydroxy-6-(1-methylindolin-5-yl)quinazolin-4(3H)-one 1:1 salt with trifluoroacetate] registered an IC50 of 0.01 µM.

On to `Cc1n[nH]cc1-c1cc(O)c2nc[nH]c(=O)c2c1` [Example 205, 8-Hydroxy-6-(3-methyl-1H-pyrazol-4-yl)quinazolin-4(3H)-one], for which the IC50 under setting [1] stood at 0.17 µM.

Turning to `O=c1[nH]cnc2c(O)cc(-c3ccc(F)cc3)c(-c3ccc(F)cc3)c12` [Example 102, 5,6-Bis(4-fluorophenyl)-8-hydroxyquinazolin-4(3H)-one], under setting [1], the IC50 is 0.001 µM.

`O=c1[nH]cnc2c(O)cc(-c3cccc(Cl)c3)cc12` [Example 149, 6-(3-Chloro-phenyl)-8-hydroxy-3H-quinazolin-4-one] returned an IC50 (IC50, COMT-fluorescence assay) of 0.01 µM.

For `Cc1c(-c2cc(O)c3nc[nH]c(=O)c3c2)cnn1-c1ccccc1` [Example 204, 8-Hydroxy-6-(5-methyl-1-phenyl-1H-pyrazol-4-yl)quinazolin-4(3H)-one], under setting [1], the IC50 stood at 0.02 µM.

In the case of `O=C(c1cccc(-c2cc(O)c3nc[nH]c(=O)c3c2)c1)N1CCC(F)(F)CC1` [Example 199, 6-[3-(4,4-Difluoro-piperidine-1-carbonyl)-phenyl]-8-hydroxy-3H-quinazolin-4-one], the IC50 under setting [1] is 0.02 µM.

In the case of `Cc1cn(C)c(-c2cc(O)c3nc[nH]c(=O)c3c2)n1` [Example 188, 6-(1,4-Dimethyl-1H-imidazol-2-yl)-8-hydroxyquinazolin-4(3H)-one], under setting [1], the IC50 is 1.27 µM.

As for `CCCCOc1ccccc1-c1cc(O)c2nc[nH]c(=O)c2c1` [Example 228, 6-(2-Butoxyphenyl)-8-hydroxyquinazolin-4(3H)-one], under setting [1], the IC50 was 0.05 µM.

Turning to `Cn1cc(-c2cc(O)c3nc[nH]c(=O)c3c2)cn1` [Example 179, 8-Hydroxy-6-(1-methyl-1H-pyrazol-4-yl)quinazolin-4(3H)-one], the half-inhibitory concentration (IC50) under setting [1] was 0.09 µM.

Regarding `CS(=O)(=O)CCc1ccccc1-c1cc(O)c2nc[nH]c(=O)c2c1` [Example 116, 8-Hydroxy-6-(2-(2-(methylsulfonyl)ethyl)phenyl)quinazolin-4(3H)-one 2,2,2-trifluoroacetate], under setting [1], the IC50 was 0.18 µM.

For `O=c1[nH]cnc2c(O)cc(-c3cnc4ccccn34)cc12` [Example 86, 8-Hydroxy-6-(imidazo[1,2-a]pyridin-3-yl)quinazolin-4(3H)-one], the IC50 under setting [1] was found to be 0.03 µM.

For the setting “IC50, COMT-fluorescence assay”, `CN1CC=C(c2c(-c3ccc(F)cc3)cc(O)c3nc[nH]c(=O)c23)CC1` [Example 61, 6-(4-Fluorophenyl)-8-hydroxy-5-(1-methyl-1,2,3,6-tetrahydropyridin-4-yl)quinazolin-4(3H)-one] came in with an IC50 of 0.13 µM.

`Cn1cncc1-c1cc(O)c2nc[nH]c(=O)c2c1` [Example 79, 8-Hydroxy-6-(1-methyl-1H-imidazol-5-yl)quinazolin-4(3H)-one]: under setting [1], the IC50 was 0.15 µM.

In the case of `COC(=O)c1cc(C)c(-c2cc(O)c3nc[nH]c(=O)c3c2)s1` [Example 81, Methyl 5-(8-hydroxy-4-oxo-3,4-dihydroquinazolin-6-yl)-4-methylthiophene-2-carboxylate], the IC50 under setting [1] was 0.01 µM.

As for `CC(C)N1CCc2c(cccc2-c2cc(O)c3nc[nH]c(=O)c3c2)C1` [Example 108, 8-Hydroxy-6-(2-isopropyl-1,2,3,4-tetrahydroisoquinolin-5-yl)quinazolin-4(3H)-one 2,2,2-trifluoroacetate], under setting [1], the IC50 is 0.08 µM.

As to `O=c1[nH]cnc2c(O)cc(CCc3ccccc3)cc12` [Example 16, 8-Hydroxy-6-phenethylquinazolin-4(3H)-one], the IC50 under setting [1] was 0.56 µM.

For the compound `Cc1cccc(Cc2cc(O)c3nc[nH]c(=O)c3c2)c1` [Example 12, 8-Hydroxy-6-(3-methylbenzyl)quinazolin-4(3H)-one], under setting [1], the 50% inhibitory concentration (IC50) turned out to be 1.47 µM.

For `Cc1ccc(C(O)c2cc(O)c3nc[nH]c(=O)c3c2)cc1` (stereo not shown) [Example 65, 8-Hydroxy-6-(hydroxy(p-tolyl)methyl)quinazolin-4(3H)-one], the IC50 under setting [1] amounted to 4.83 µM.

`Cc1nc(C)c(-c2cc(O)c3nc[nH]c(=O)c3c2)s1` [Example 178, 6-(2,4-Dimethylthiazol-5-yl)-8-hydroxyquinazolin-4(3H)-one]: the IC50 under setting [1] came to 0.01 µM.

Consider `CN(C)Cc1cccc(-c2cc(O)c3nc[nH]c(=O)c3c2)c1` [Example 229, 6-(3-Dimethylaminomethyl-phenyl)-8-hydroxy-3H-quinazolin-4-one], for which, under setting [1], the IC50 was determined as 0.054 µM.
